In patent publication EP0046990A2, “2-Halogeno-4-alkyl-4,7-dihydro-7-oxo-thieno(3,2-b)-pyridine-6-carboxylic acids, salts thereof at the carboxyl group, pharmaceutical use thereof, and intermediates thereof” (KANEBO, LTD., priority 1980, dated 1982):
In brackets after ≈: the same amount, converted by molar mass.

Tests used:
[1] = system: Staphylococcus aureus 209-P; assay: antimicrobial test (MIC); format: cell-based
[2] = system: Bacillus sub-tillis ATCC 6633; assay: antimicrobial test (MIC); format: cell-based; conditions: ATCC6633
[3] = system: Escherichia coli NIHJ; assay: antimicrobial test (MIC); format: cell-based
[4] = system: Escherichia coli K-12; assay: antimicrobial test (MIC); format: cell-based; conditions: K12
[5] = system: Klebsiella pneumoniae IFO 3512; assay: antimicrobial test (MIC); format: cell-based; conditions: IFO3512
[6] = system: Serratia marcescens IFO 3046; assay: antimicrobial test (MIC); format: cell-based; conditions: IFO3046
[7] = system: Proteus vulgaris OX-19; assay: antimicrobial test (MIC); format: cell-based; conditions: OX19
[8] = system: Proteus mirabilis 1287; assay: antimicrobial test (MIC); format: cell-based
[9] = in vivo; conditions: mouse, oral administration to mice
Source text: The compounds of this invention have low toxicity.

Row | Compound | MIC [1] | MIC [2] | MIC [3] | MIC [4] | MIC [5] | MIC [6] | MIC [7] | MIC [8] | LD50 [9]
1 | CCn1cc(C(=O)O)c(=O)c2sc(Cl)cc21 [Compound A, 2-chloro-4,7-dihydro-4-ethyl-7-oxo-thieno(3,2-b)pyridine-6-carboxylic acid] | > 100 µg/mL | 12.5 µg/mL (≈ 48.5 µM) | 1.56 µg/mL (≈ 6.05 µM) | 12.5 µg/mL (≈ 48.5 µM) | 6.25 µg/mL (≈ 24.3 µM) | 3.13 µg/mL (≈ 12.1 µM) | 12.5 µg/mL (≈ 48.5 µM) | 6.25 µg/mL (≈ 24.3 µM) | 
2 | CCn1cc(C(=O)O)c(=O)c2sc(Br)cc21 [Compound B, 2-bromo-4,7-dihydro-4-ethyl-7-oxo-thieno(3,2-b)pyridine-6-carboxylic acid] | > 100 µg/mL | 6.25 µg/mL (≈ 20.7 µM) | 1.56 µg/mL (≈ 5.16 µM) | 6.25 µg/mL (≈ 20.7 µM) | 3.13 µg/mL (≈ 10.4 µM) | 1.56 µg/mL (≈ 5.16 µM) | 6.25 µg/mL (≈ 20.7 µM) | 3.13 µg/mL (≈ 10.4 µM) | 
3 | CCn1cc(C(=O)O)c(=O)c2sc(I)cc21 [Compound C, 2-iodo-4,7-dihydro-4-ethyl-7-oxo-thieno(3,2-b)pyridine-6-carboxylic acid] | 25 µg/mL (≈ 71.6 µM) | 1.56 µg/mL (≈ 4.47 µM) | 1.56 µg/mL (≈ 4.47 µM) | 3.13 µg/mL (≈ 8.96 µM) | 1.56 µg/mL (≈ 4.47 µM) | 0.78 µg/mL (≈ 2.23 µM) | 0.78 µg/mL (≈ 2.23 µM) | 0.78 µg/mL (≈ 2.23 µM) | 2800 mg/kg
4 | CCn1cc(C(=O)O)c(=O)c2ccc(C)nc21 [Nalidixic acid, reference compound] | > 100 µg/mL | 3.13 µg/mL (≈ 13.5 µM) | 1.56 µg/mL (≈ 6.72 µM) | 6.25 µg/mL (≈ 26.9 µM) | 1.56 µg/mL (≈ 6.72 µM) | 1.56 µg/mL (≈ 6.72 µM) | 3.13 µg/mL (≈ 13.5 µM) | 3.13 µg/mL (≈ 13.5 µM) | 
